Results: the supplement of paper PMC8149375

Experiments:
Details in all cases: treatment: drug alone; 5 days
UO-31 [1] = experiment: minimum viability across doses, drug alone, relative to DMSO (fraction); higher = less growth inhibition
Method: (§1)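 Primary HTS: 8 RCC cell lines treated with 8 doses (up to 10 uM) of each library drug alone for 5 days; viability read by CellTiter-Glo and normalised to DMSO. GI50 was fitted with XLfit (4-parameter), AUC is the area under the dose-response curve, and minimum viability is the lowest fraction of DMSO viability across doses.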

769-P [2] = experiment: as above
Method: as §1

786-O [3] = experiment: as above
Method: as §1

SN12C [4] = experiment: as above
Method: as §1

ACHN [5] = experiment: as above
Method: as §1

TK-10 [6] = experiment: as above
Method: as §1

CAKI-1 [7] = experiment: as above
Method: as §1

A498 [8] = experiment: as above
Method: as §1

UO-31 [9] = experiment: AUC of dose-response viability curve, drug alone (arbitrary (AUC of normalised viability)); higher = less growth inhibition
Method: as §1

769-P [10] = experiment: as above
Method: as §1

786-O [11] = experiment: as above
Method: as §1

SN12C [12] = experiment: as above
Method: as §1

ACHN [13] = experiment: as above
Method: as §1

TK-10 [14] = experiment: as above
Method: as §1

CAKI-1 [15] = experiment: as above
Method: as §1

A498 [16] = experiment: as above
Method: as §1

UO-31 [17] = experiment: GI50, drug alone; higher = less potent
Method: as §1

769-P [18] = experiment: GI50, drug alone; higher = less potent
Method: as §1

786-O [19] = experiment: GI50, drug alone; higher = less potent
Method: as §1

SN12C [20] = experiment: GI50, drug alone; higher = less potent
Method: as §1

ACHN [21] = experiment: GI50, drug alone; higher = less potent
Method: as §1

TK-10 [22] = experiment: GI50, drug alone; higher = less potent
Method: as §1

CAKI-1 [23] = experiment: GI50, drug alone; higher = less potent
Method: as §1

A498 [24] = experiment: GI50, drug alone; higher = less potent
Method: as §1

SMILES	GI50, drug alone (786-O [19]) [µM]	GI50, drug alone (ACHN [21]) [nM]	minimum viability across doses (UO-31 [1])	minimum viability across doses (769-P [2])	minimum viability across doses (786-O [3])	minimum viability across doses (SN12C [4])	minimum viability across doses (ACHN [5])	minimum viability across doses (TK-10 [6])	minimum viability across doses (CAKI-1 [7])	minimum viability across doses (A498 [8])	AUC of dose-response viability curve (UO-31 [9])	AUC of dose-response viability curve (769-P [10])	AUC of dose-response viability curve (786-O [11])	AUC of dose-response viability curve (SN12C [12])	AUC of dose-response viability curve (ACHN [13])	AUC of dose-response viability curve (TK-10 [14])	AUC of dose-response viability curve (CAKI-1 [15])	AUC of dose-response viability curve (A498 [16])	GI50, drug alone (UO-31 [17]) [µM]	GI50, drug alone (769-P [18]) [nM]	GI50, drug alone (SN12C [20]) [nM]	GI50, drug alone (TK-10 [22]) [nM]	GI50, drug alone (CAKI-1 [23]) [nM]	GI50, drug alone (A498 [24]) [nM]
Cc1ccc(-n2nc(C(C)(C)C)cc2NC(=O)Nc2ccc(OCCN3CCOCC3)c3ccccc23)cc1 [BIRB 796 (Doramapimod)]	> 10	> 10000	0.787	0.91	0.748	0.796	0.709	0.712	0.858	0.879	3.74	3.52	3.46	3.36	2.88	3.02	3.46	4.02	> 10	> 10000	> 10000	> 10000	> 10000	> 10000
Nc1cc(C(F)(F)F)c(-c2cc(N3CCOCC3)nc(N3CCOCC3)n2)cn1 [BKM120 (NVP-BKM120)]	0.179	887	0.0226	0.0668	0.00247	0.0728	0.0858	0.0981	0.0499	0.134	2.65	2.57	1.56	2.23	2.31	2.2	2.31	2.89	1.45	1570	1670	641	608	1930
CC(C)c1cnn2c(NCc3ccccc3)cc(NCCCCCCN)nc12.Cl [BS-181 HCl]	9.75	> 10000	1.15	0.902	0.424	0.842	0.54	0.696	0.753	1.1	5.07	3.58	3.43	3.22	3.3	2.97	2.84	4.29	> 10	> 10000	> 10000	> 10000	> 10000	> 10000

Now from value to compound, other results behind:

GI50, drug alone (786-O [19]) [µM]	GI50, drug alone (ACHN [21]) [nM]	SMILES	minimum viability across doses (UO-31 [1])	minimum viability across doses (769-P [2])	minimum viability across doses (786-O [3])	minimum viability across doses (SN12C [4])	minimum viability across doses (ACHN [5])	minimum viability across doses (TK-10 [6])	minimum viability across doses (CAKI-1 [7])	minimum viability across doses (A498 [8])	AUC of dose-response viability curve (UO-31 [9])	AUC of dose-response viability curve (769-P [10])	AUC of dose-response viability curve (786-O [11])	AUC of dose-response viability curve (SN12C [12])	AUC of dose-response viability curve (ACHN [13])	AUC of dose-response viability curve (TK-10 [14])	AUC of dose-response viability curve (CAKI-1 [15])	AUC of dose-response viability curve (A498 [16])	GI50, drug alone (UO-31 [17]) [µM]	GI50, drug alone (769-P [18]) [nM]	GI50, drug alone (SN12C [20]) [nM]	GI50, drug alone (TK-10 [22]) [nM]	GI50, drug alone (CAKI-1 [23]) [nM]	GI50, drug alone (A498 [24]) [nM]
0.0101	49.9	CC[C@@H]1C(=O)N(C)c2cnc(Nc3ccc(C(=O)NC4CCN(C)CC4)cc3OC)nc2N1C1CCCC1 [BI 2536]	0.0104	0.049	0.0067	0.0427	0.121	0.0909	0.121	0.0641	1.61	1.58	0.585	1.37	1.37	1.91	1.78	1.97	0.0839	120	54.9	317	93.6	458
> 10	2070	COC(=O)c1ccc2c(c1)NC(=O)/C2=C(\Nc1ccc(N(C)C(=O)CN2CCN(C)CC2)cc1)c1ccccc1 [BIBF1120 (Vargatef)]	0.439	0.917	0.782	0.393	0.255	0.61	0.251	0.892	4.65	3.42	3.94	2.58	2.77	3.09	2.81	3.91	7.36	> 10000	> 10000	> 10000	2130	> 10000
